# Earlier results in US20030012825A1, “Metallized molecule therapies” (priority 2000, published 2003).
# Tests used:
# Metrazol-induced seizure = conditions: subcutaneously
# [1] = test system: Maximal Electroshock-induced seizure; conditions: subcutaneously
# [2] = test system: flow-mediated vasodilation; conditions: in vivo
# [3] = in vivo
# [4] = in vivo; remark: listed apart in the source
structure (smiles),measurement,setting,value
O=C(O)c1ccccc1[O-].O=C(O)c1ccccc1[O-].[Cu+2] [Cu(II) (salicylate) 2],"dose at which anticonvulsant activity is initiated, preventing the Metrazol-induced seizure",Metrazol-induced seizure,100 milligrams per kilogram of bodyweight
same,"dose at which anticonvulsant activity is initiated, preventing the Maximal Electroshock-induced seizure",[1],600 milligrams per kilogram of bodyweight
[Cl][Cu][Cl] [copper chloride],effect on flow-mediated vasodilation,[2],improve flow-mediated vasodilation
[Cu+] [copper ions],effect on intracellular HIV replication,HIV,inhibit intracellular HIV replication
COC1=C(OC)C(=O)C(C/C=C(\C)CC/C=C(\C)CC/C=C(\C)CC/C=C(\C)CC/C=C(\C)CC/C=C(\C)CC/C=C(\C)CC/C=C(\C)CC/C=C(\C)CCC=C(C)C)=C(C)C1=O [Coenzyme Q10],EEG brain activity,[3],lowering of EEG
N[C@@H](Cc1ccc(O)cc1)C(=O)O [tyrosine],ability to pass the blood-brain barrier,[4],unique ability of passing the blood-brain barrier
